Experimental data: patent US5023264A, “Rapamycin oximes” (American Home Products Corporation, priority 1990, dated 1991)
Converted amounts (≈) assume the structure as drawn.

Experiments:
[1] = test system: immunosuppressive activity; assay: Standard pharmacological test procedures described supra (isomers of Example 1; overall immunosuppressive activity); design: species or system mouse; conditions: results not presented for the inactive isomer
Experimental: (§1) Immunosuppressive activity was evaluated in an in vitro standard pharmacological test procedure to measure lymphocyte proliferation (LAF) and in two in vivo standard pharmacological test procedures. The first in vivo procedure was a popliteal lymph node (PLN) test procedure which measured the effect of compounds of this invention on a mixed lymphocyte reaction and the second in vivo procedure evaluated the survival time of a pinch skin graft.
(§2) Briefly, cells from the thymus of normal BALB/c mice are cultured for 72 hours with PHA and IL-1 and pulsed with tritiated thymidine during the last six hours. […] Cells are harvested and incorporated; radioactivity is determined. Inhibition of lymphoproliferation is assessed in percent change in counts per minute from non-drug treated controls. The results are expressed by the following ratio: [formula]
A mixed lymphocyte reaction (MLR) occurs when lymphoid cells from genetically distinct animals are combined in tissue culture. Each stimulates the other to undergo blast transformation which results in increased DNA synthesis that can be quantified by the incorporation of tritiated thymidine. […] On Day 3 and Day 4, tritiated thymidine is given i.p., b.i.d. On Day 5, the hind popliteal lymph nodes are removed and dissolved, and radioactivity counted. […] Percent suppression is calculated using the non-drug treated animals as allogenic control. […]

[2] = test system: thymocyte (lymphocyte) proliferation; assay: Comitogen-induced thymocyte proliferation procedure (LAF); type: cell-based; conditions: in vitro, thymus cells of BALB/c mice, PHA and IL-1, 72 hours; ratio calculated as described (rapamycin 1.0)
Experimental: as §1, §2
(§3) *Calculation of ratios was described supra.
(§4) Transplanted pinch skin grafts are typically rejected within 6-7 days without the use of an immunosuppressive agent. […] (see, I. Roitt et al. Immunology, C. V. Moseby Co. 1989, p 12.8-12.11).

[3] = test system: mixed lymphocyte reaction in popliteal lymph node (host vs. graft); assay: Popliteal lymph node (PLN) test procedure, in vivo mixed lymphocyte reaction; design: species or system mouse (BALB/c donors, C3H recipients); conditions: for PLN (ratio): p.o. daily Day 0 to Day 4, ratio calculated as described (rapamycin 1.0)
Experimental: as §1
A mixed lymphocyte reaction (MLR) occurs when lymphoid cells from genetically distinct animals are combined in tissue culture. Each stimulates the other to undergo blast transformation which results in increased DNA synthesis that can be quantified by the incorporation of tritiated thymidine. Since stimulating a MLR is a function of disparity at Major Histocompatibility antigens, an in vivo popliteal lymph node (PLN) test procedure closely correlates to host vs. graft disease. Briefly, irradiated spleen cells from BALB/c donors are injected into the right hind foot pad of recipient C3H mice. The drug is given daily, p.o. from Day 0 to Day 4. On Day 3 and Day 4, tritiated thymidine is given i.p., b.i.d. On Day 5, the hind popliteal lymph nodes are removed and dissolved, and radioactivity counted. The corresponding left PLN serves as the control for the PLN from the injected hind foot. Percent suppression is calculated using the non-drug treated animals as allogenic control. […] Results are expressed by the following ratio: [formula]
as §3, §4

[4] = test system: pinch skin graft rejection; assay: Survival time of pinch skin graft; type: in vivo, mouse (male DBA/2 donors, male BALB/c recipients); conditions: for Skin Graft survival (days + SD): intraperitoneally, mean graft survival time ± S.D.
Experimental: as §1
The second in vivo test procedure is designed to determine the survival time of pinch skin graft from male DBA/2 donors transplanted to male BALB/c recipients. The method is adapted from Billingham R. E. and Medawar P. B., J. Exp. Biol. 28:385-(402), 1951. Briefly, a pinch skin graft from the donor is grafted on the dorsum of the recipient as a homograft, and an autograft is used as control in the same region. […] Untreated recipients serve as rejection control. The graft is monitored daily and observations are recorded until the graft becomes dry and forms a blackened scab. This is considered as the rejection day. The mean graft survival time (number of days±S.D.) of the drug treatment group is compared with the control group.
as §4

[5] = test system: Candida albicans ATCC 10231; assay: Antifungal plate test, MIC, strain ATCC 10231; type: cell-based; conditions: plate disk test
Experimental: (§5) The following represents the typical procedure used. Compound to be tested was placed on sterile dried 1/4" plate disks, and allowed to dry. Agar plates were seeded with fungi and allowed to solidify. The impregnated disks were placed on the seeded Agar surface and incubated for the time required for the particular culture. Results are expressed in MIC (μg/ml) to inhibit growth.

[6] = test system: Candida albicans ATCC 38246; assay: Antifungal plate test, MIC, strain ATCC 38246; type: cell-based; conditions: plate disk test
Experimental: as §5

[7] = test system: Candida albicans ATCC 38247; assay: Antifungal plate test, MIC, strain ATCC 38247; type: cell-based; conditions: plate disk test
Experimental: as §5

[8] = test system: Candida albicans ATCC 38248; assay: Antifungal plate test, MIC, strain ATCC 38248; type: cell-based; conditions: plate disk test
Experimental: as §5

Candida albicans 3669 = assay: Antifungal plate test, MIC, strain 3669; type: cell-based; conditions: plate disk test
Experimental: as §5

transplant rejection = conditions: cited from earlier work
Candida albicans = conditions: particularly against Candida albicans, in vitro and in vivo; cited from earlier work
[9] = test system: experimental allergic encephalomyelitis, a model for multiple sclerosis; conditions: cited from earlier work
IGE-like antibodies = conditions: in vivo; cited from earlier work

Row | Compound | LAF (ratio) [2] | Skin Graft survival (days + SD) [4] [days] | MIC [5] [µg/mL] | MIC [6] [µg/mL] | MIC [7] [µg/mL] | MIC [8] [µg/mL] | MIC (Candida albicans 3669) [µg/mL] | Immunosuppressive effect / inhibition of transplant rejection (transplant rejection) | further results
1 | CO[C@H]1C[C@@H]2CC[C@@H](C)[C@@](O)(O2)C(=O)C(=O)N2CCCC[C@H]2C(=O)O[C@H]([C@H](C)C[C@@H]2CC[C@@H](O)[C@H](OC)C2)CC(=O)[C@H](C)/C=C(\C)[C@@H](O)[C@@H](OC)C(=NO)[C@H](C)C[C@H](C)/C=C/C=C/C=C/1C (single isomer, unassigned) [isomerically pure mono-oxime, Rapamycin-27-oxime] | – | – | – | – | – | – | – | – | Biological activity of the isomers of Example 1 [1]: biologically inactive
2 | CO[C@H]1C[C@@H]2CC[C@@H](C)[C@@](O)(O2)C(=O)C(=O)N2CCCC[C@H]2C(=O)O[C@H]([C@H](C)C[C@@H]2CC[C@@H](O)[C@H](OC)C2)CC(=O)[C@H](C)/C=C(\C)[C@@H](O)[C@@H](OC)C(=NOCc2ccccc2)[C@H](C)C[C@H](C)/C=C/C=C/C=C/1C [Example 2, Rapamycin-O-benzyl-27-oxime] | 0.87 | 9.3 ± 1.4 | > 0.4 | > 0.4 | > 0.4 | > 0.4 | > 0.4 | – | PLN (ratio) [3]: 1.39
3 | CON=C1[C@H](C)C[C@H](C)/C=C/C=C/C=C(\C)[C@@H](OC)C[C@@H]2CC[C@@H](C)[C@@](O)(O2)C(=O)C(=O)N2CCCC[C@H]2C(=O)O[C@H]([C@H](C)C[C@@H]2CC[C@@H](O)[C@H](OC)C2)CC(=O)[C@H](C)/C=C(\C)[C@@H](O)[C@H]1OC [Example 3, Rapamycin-O-methyl-27-oxime] | 0.007 | 9.5 ± 1.4 | 0.2 (≈ 0.212 µM) | 0.05 (≈ 0.053 µM) | 0.2 (≈ 0.212 µM) | 0.05 (≈ 0.053 µM) | 0.2 (≈ 0.212 µM) | – | –
4 | C=CC[C@@H]1/C=C(\C)C[C@H](C)C[C@H](OC)[C@H]2O[C@@](O)(C(=O)C(=O)N3CCCC[C@H]3C(=O)O[C@H](/C(C)=C/[C@@H]3CC[C@@H](O)[C@H](OC)C3)[C@H](C)[C@@H](O)CC1=O)[C@H](C)C[C@@H]2OC [FK-506] | – | – | – | – | – | – | – | effective as immunosuppressive agents | –
5 | CO[C@H]1C[C@@H]2CC[C@@H](C)[C@@](O)(O2)C(=O)C(=O)N2CCCC[C@H]2C(=O)O[C@H]([C@H](C)C[C@@H]2CC[C@@H](O)[C@H](OC)C2)CC(=O)[C@H](C)/C=C(\C)[C@@H](O)[C@@H](OC)C(=O)[C@H](C)C[C@H](C)/C=C/C=C/C=C/1C [Rapamycin] | – | 12.0 ± 1.7 | – | – | – | – | – | effective in inhibiting transplant rejection | Antifungal activity (Candida albicans): antifungal activity, particularly against Candida albicans, both in vitro and in vivo; Effect in experimental allergic encephalomyelitis model [9]: effective in the experimental allergic encephalomyelitis model; Inhibition of formation of IGE-like antibodies (IGE-like antibodies): effectively inhibited the formation of IGE-like antibodies
6 | Rapamycin-27-oxime [Example 1] | 0.25 | 10.0 ± 1.6 | 0.05 | 0.2 | 0.05 | 0.1 | 0.2 | – | T cell proliferation in the PLN test procedure (in words) ([3]; from negative PLN ratio): may cause T cell proliferation in the PLN test procedure; PLN (ratio) [3]: -1.40; Skin graft survival time (in words) ([4]; compared with grafts without immunosuppressive agent, rejected within 6-7 days): increased survival time observed in the skin graft test procedure; Biological activity of the isomers of Example 1 [1]: active in the assays described supra
7 | cyclosporin A | – | – | – | – | – | – | – | effective as immunosuppressive agents | –
